Data: PMC7845643, “Predictive Rules of Efflux Inhibition and Avoidance in Pseudomonas aeruginosa” (mBio, 2021)
Converted amounts (≈) assume the structure as drawn.

Key:
[1] = system: T1, Pseudomonas aeruginosa PΔ6-Pore; assay: microbe, parasite or virus in culture; design: 2-fold serial broth dilution MIC (at least 90% growth inhibition); conditions: read-out: MICs (mg/L) in strains: / D6-Pore
T1 construct: PΔ6-Pore (six efflux pumps deleted, hyperporinated with fhuADCΔ4L)
Experimental: (§1) Antibacterial activities were tested using a 2-fold serial dilution broth assay as described previously ([13]). The antibacterial activities are expressed as MIC (defined as at least 90% of growth inhibition) and IC50. To follow the fate of compounds in cells and to identify descriptors associated with different permeation barriers, we first separated the contributions of the OM barrier and active efflux in measured activities of compounds. For this purpose, the bacterial growth-inhibitory activities for all Rempex compounds were analyzed in four P. aeruginosa strains: the wild-type strain, PAO1; the PΔ6 strain, lacking six efflux pumps (ΔmexAB-oprM, ΔmexCD-oprJ, ΔmexXY, ΔmexJKL, ΔmexEF-oprN, and ΔtriABC); and their hyperporinated derivatives, PAO1-Pore and PΔ6-Pore, respectively ([39]). These strains were previously shown to differ dramatically in their susceptibilities to various classes of antibiotics because of differences in efflux proficiency and permeation across the OM ([13], [15]). To normalize to the differences in target inhibition potency among compounds, our key measured parameters were efflux ratios and OM barrier ratios, defined as the 50% inhibitory concentration for the parent/mutant (IC50 parent/IC50 mutant), for efflux mutants and hyperporinated mutants, respectively (see Table S1 in the supplemental material). More specifically, the IC50 ratios for PAO1/PAO1-Pore and PΔ6/PΔ6-Pore define the contribution of the OM barrier to the activities of compounds in the presence and absence of efflux, respectively. […] Activities of only a few compounds were slightly affected by the OM. Among them are compounds 58 and 46 (Fig. 1A), whose activity is enhanced by hyperporination of efflux-deficient PΔ6-Pore cells by 16- and 8-fold, respectively.

[2] = system: T2, Pseudomonas aeruginosa PAO1-Pore; assay: microbe, parasite or virus in culture; design: 2-fold serial broth dilution MIC (at least 90% growth inhibition); conditions: PAO1, read-out: MICs (mg/L) in strains: / PAO1-Pore
T2 construct: PAO1-Pore (hyperporinated, attTn7::mini-Tn7T-Gmr-lacIq-pLAC-fhuADCΔ4L)
Experimental: as §1

[3] = system: T3, Pseudomonas aeruginosa PAO1; assay: microbe, parasite or virus in culture; design: 2-fold serial broth dilution MIC (at least 90% growth inhibition); conditions: PAO1, read-out: MICs (mg/L) in strains: / PAO1
T3 construct: PAO1 (attTn7::mini-Tn7T-Gm-lacIq-pLAC-MCS)
Experimental: as §1

MexB = biological target: T4, MexB (Pseudomonas aeruginosa, UniProt P52002); assay: SPR (Biacore T200, CM5 chip, immobilized MexB, kinetic fit); type: binding
T4 construct: purified MexB immobilized by amine coupling
T4 sequence (P52002 whole entry): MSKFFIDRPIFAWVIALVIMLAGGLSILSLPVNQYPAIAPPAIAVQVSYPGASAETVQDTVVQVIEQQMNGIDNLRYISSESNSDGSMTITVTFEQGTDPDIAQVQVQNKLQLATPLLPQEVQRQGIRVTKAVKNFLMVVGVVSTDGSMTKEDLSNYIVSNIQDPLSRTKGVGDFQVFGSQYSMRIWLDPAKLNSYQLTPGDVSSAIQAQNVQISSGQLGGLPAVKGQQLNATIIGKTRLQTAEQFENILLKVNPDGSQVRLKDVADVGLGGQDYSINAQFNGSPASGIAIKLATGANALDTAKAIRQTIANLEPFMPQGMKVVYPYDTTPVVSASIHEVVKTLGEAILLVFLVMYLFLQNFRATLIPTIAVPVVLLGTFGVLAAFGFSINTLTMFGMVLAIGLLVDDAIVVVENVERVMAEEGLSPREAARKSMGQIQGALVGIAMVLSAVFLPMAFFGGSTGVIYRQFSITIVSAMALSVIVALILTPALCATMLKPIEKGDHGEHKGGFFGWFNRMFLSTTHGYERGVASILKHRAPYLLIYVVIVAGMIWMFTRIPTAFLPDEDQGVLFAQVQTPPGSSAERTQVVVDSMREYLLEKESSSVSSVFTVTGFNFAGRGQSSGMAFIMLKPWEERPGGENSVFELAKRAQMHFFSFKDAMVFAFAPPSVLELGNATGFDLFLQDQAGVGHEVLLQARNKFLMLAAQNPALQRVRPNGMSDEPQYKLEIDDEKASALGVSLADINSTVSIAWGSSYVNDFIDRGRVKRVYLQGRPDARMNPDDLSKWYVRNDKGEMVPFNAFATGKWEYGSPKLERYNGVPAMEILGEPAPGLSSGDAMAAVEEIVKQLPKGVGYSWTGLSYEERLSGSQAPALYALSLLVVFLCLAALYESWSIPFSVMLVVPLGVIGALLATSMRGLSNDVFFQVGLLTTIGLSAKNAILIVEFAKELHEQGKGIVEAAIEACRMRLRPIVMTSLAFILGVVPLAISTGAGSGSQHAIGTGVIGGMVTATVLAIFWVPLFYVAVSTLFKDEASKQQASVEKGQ

[4] = system: T5, Pseudomonas aeruginosa PΔ6; assay: microbe, parasite or virus in culture; design: 2-fold serial broth dilution MIC (at least 90% growth inhibition); conditions: read-out: MICs (mg/L) in strains: / D6
T5 construct: PΔ6 (PAO1 ΔmexAB-oprM ΔmexCD-oprJ ΔmexXY ΔmexJKL ΔmexEF-oprN ΔtriABC, efflux-deficient)
Experimental: as §1

Compound | MIC [1] [mg/L] | MIC [2] [mg/L] | MIC [3] [mg/L] | Kd (MexB) [µM] | MIC [4] [mg/L]
O=C(O)C1=C(CSc2nnnn2CS(=O)(=O)O)CS[C@@H]2[C@H](NC(=O)[C@H](O)c3ccccc3)C(=O)N12 [OU-666, cefonicid] | 3.9 (≈ 7.19 µM) | 3.9 (≈ 7.19 µM) | 62.5 (≈ 115 µM) |  | 
C[N+](CCN)(CCN)CCC[C@H](N)C(=O)N[C@H](CCc1ccc(C(F)(F)F)cc1)C(=O)Nc1cnc2ccccc2c1 [compound 17] |  |  |  | 24.2 | 
CO[C@@]1(NC(=O)C2SC(=C(C(N)=O)C(=O)O)S2)C(=O)N2C(C(=O)O)=C(CSc3nnnn3C)CS[C@@H]21 (stereo partly drawn) [OU-654, cefotetan] | 12.5 (≈ 21.7 µM) | 200 (≈ 347 µM) | > 400 |  | 100 (≈ 174 µM)
Cc1cc(O)c(C(=O)N[C@@H](C(=O)N[C@@H]2C(=O)N3C(C(=O)O)=C(CSc4nnnn4C)CS[C@H]23)c2ccc(O)cc2)cn1 [OU-031452, cefpiramide] | 250 (≈ 408 µM) | > 1000 | > 1000 |  | > 1000
Nc1nc(/C(=C/CC(=O)O)C(=O)N[C@@H]2C(=O)N3C(C(=O)O)=CCS[C@H]23)cs1 [OU-668, ceftibuten] | 128 (≈ 312 µM) | 2000 (≈ 4870 µM) | > 2000 |  | 1000 (≈ 2440 µM)
CCN1CCN(C(=O)N[C@@H](C(=O)N[C@@H]2C(=O)N3C(C(=O)O)=C(CSc4nnnn4C)CS[C@H]23)c2ccc(O)cc2)C(=O)C1=O [OU-634, cefoperazone] | 0.97 (≈ 1.5 µM) | 0.97 (≈ 1.5 µM) | 3.9 (≈ 6.04 µM) |  | 
CO[C@@]1(NC(=O)C(C(=O)O)c2ccc(O)cc2)C(=O)N2C(C(=O)O)=C(CSc3nnnn3C)CO[C@@H]21 (stereo partly drawn) [OU-672, moxalactam] | 0.97 (≈ 1.86 µM) | 15.6 (≈ 30 µM) | 62.5 (≈ 120 µM) |  | 62.5 (≈ 120 µM)
CO/N=C(\C(=O)N[C@@H]1C(=O)N2C(C(=O)O)=C(CSc3nc(=O)c(O)nn3C)CS[C@H]12)c1csc(N)n1 [OU-640, ceftriaxone] | 0.06 (≈ 0.108 µM) | 0.97 (≈ 1.75 µM) | 15.6 (≈ 28.1 µM) |  | 3.9 (≈ 7.03 µM)
